# Source: US20070123500A1, “Prodrugs of ERbeta-selective substances, processes for their preparation and pharmaceutical compositions comprising these compounds” (priority 2005, published 2007)
# Legend:
# [1] = target: human carboanhydrase I (Homo sapiens, UniProt P00915); test: Carboanhydrase inhibition, photometric, nitrophenyl acetate conversion (CA I); type: biochemical; details: read-out: CAI IC50
# From the text: (§1) b) Carboanhydrase Inhibition—Test Principle and Experimental Description:
# (§2) Photometric determination of the inhibition of human carboanhydrase I or II by sulphonamides or sulphamates on microtitre plates with the aid of the enzymatic conversion of nitrophenyl acetate with a colour change from colourless to yellow.
# [2] = target: human carboanhydrase II (Homo sapiens, UniProt P00918); test: Carboanhydrase inhibition, photometric, nitrophenyl acetate conversion (CA II); type: biochemical; details: read-out: CAII IC50
# From the text: as §1, §2
# [3] = Blood-plasma concentration ratio in rat blood; type: in vitro ADME; details: freshly obtained heparinized whole blood
# Protocol: (§3) a) Blood-plasma Concentration Ratio—Test Principle and Experimental Description:
# (§4) The SO2—NH2 group of the substances according to the invention can lead to a concentration in erythrocytes as a result of binding to carboanhydrases.
# (§5) Freshly obtained, heparinized blood from a rat is treated with a defined amount of active compound. The active compound concentration in the plasma obtained therefrom is measured against a calibration curve of spiked (with a known active compound concentration) plasma. The blood-plasma ratio is calculated from the measured concentration and the theoretical concentration.
# (§6) In contrast to the results published in WO 01/91797, the concentration ratios of the compounds according to the invention between erythrocytes and plasma are not in a range from 10-1000:1, but in the range <10:1.
# [4] = Blood/plasma ratio in human erythrocytes; type: in vitro ADME; details: human erythrocytes (blood)
# Protocol: as §3, §4, §5, §6
# human carboanhydrase I, sequence (P00915 whole entry): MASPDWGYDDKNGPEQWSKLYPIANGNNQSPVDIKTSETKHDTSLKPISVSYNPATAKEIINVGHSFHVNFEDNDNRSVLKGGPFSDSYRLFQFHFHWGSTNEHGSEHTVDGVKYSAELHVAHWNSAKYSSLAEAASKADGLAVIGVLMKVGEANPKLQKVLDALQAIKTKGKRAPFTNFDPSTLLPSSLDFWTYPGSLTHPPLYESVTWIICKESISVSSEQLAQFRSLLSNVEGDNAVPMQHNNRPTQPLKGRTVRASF
SMILES,IC50 [1] [nM],IC50 [2] [nM],blood plasma ratio [3],blood plasma ratio [4]
"C[C@]12CC[C@@H]3c4ccc(OS(N)(=O)=O)cc4CC[C@H]3[C@@H]1CC[C@@H]2O [Oestradiol 3-sulphamate, reference compound]",157 ± 10.6,,,
"C=C[C@]12CC[C@]3(C)[C@@H](F)[C@H](OC(=O)c4ccccc4)C[C@H]3[C@@H]1CCc1cc(O)ccc12 [17β-Fluoro-3-hydroxy-9α-vinyloestra-1,3,5(10)-trien-16α-yl benzoate, reference compound]",> 10000,> 10000,,
"C=C[C@]12CC[C@]3(C)[C@@H](F)[C@H](OC(=O)c4cccc(S(N)(=O)=O)c4)C[C@H]3[C@@H]1CCc1cc(O)ccc12 [17β-Fluoro-3-hydroxy-9α-vinyloestra-1,3,5(10)-trien-16α-yl 3′-sulphamoylbenzoate]",3700,720,~3.7,1.2
"C=C[C@]12CC[C@]3(C)C[C@H](OC(=O)c4cccc(S(N)(=O)=O)c4)C[C@H]3[C@@H]1CCc1cc(O)ccc12 [3-Hydroxy-9α-vinyloestra-1,3,5(10)-trien-16α-yl 3′-sulphamoylbenzoate]",3400,490,,
